From patent US12503475B2 (Centessa Pharmaceuticals (UK) Limited, priority 2020, dated 2025)
Where two headings read alike, the source gives them in different places.

Molecular target: T1, human orexin type 2 receptor (hOX2R) (Homo sapiens, UniProt O43614)
T1 construct: expressed in transfected cells
T1 sequence (O43614 1-444): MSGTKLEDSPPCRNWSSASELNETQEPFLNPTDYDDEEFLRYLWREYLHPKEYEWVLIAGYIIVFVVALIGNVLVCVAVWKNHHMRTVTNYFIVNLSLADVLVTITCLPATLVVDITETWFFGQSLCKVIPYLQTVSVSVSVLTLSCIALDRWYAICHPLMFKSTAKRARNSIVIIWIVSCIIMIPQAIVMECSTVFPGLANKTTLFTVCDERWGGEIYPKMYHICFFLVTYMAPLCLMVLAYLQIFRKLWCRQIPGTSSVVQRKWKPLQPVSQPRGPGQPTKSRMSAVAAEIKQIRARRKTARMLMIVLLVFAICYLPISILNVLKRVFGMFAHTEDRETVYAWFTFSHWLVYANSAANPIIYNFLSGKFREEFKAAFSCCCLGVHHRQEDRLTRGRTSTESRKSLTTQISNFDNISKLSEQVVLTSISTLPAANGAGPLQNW
Assay: Measurement of orexin type 2 receptor agonist activity (FLIPR calcium fluorescence)
Assay type: cell-based
Conditions: for EC50: read-out: hOx2 pEC50 (converted); for Emax: CHO, read-out: hOx2 Emax (%)
Method: The biological activity of the compounds of the present disclosure may be determined in cells stably expressing either orexin type 2 or orexin type 1 receptor. […] The agonist activity of a compound of the present disclosure may be determined by fluorescence value.
Stable cell line generation.
Measurement of orexin type 2 receptor agonist activity. […] As used herein, E. indicates the value at 10 μM concentration when orexin A is converted to a full agonist (maximum value of agonist activity. 100%).

[1] = CHO cells expressing hOX2R, FLIPR calcium fluorescence

Structure (SMILES) | EC50 [1] [nM] | Emax [1] [%] | Emax [%] | hOx2 Emax (%) [1]
CCN(C)C(=O)N1CC2(CC2)[C@H](NS(C)(=O)=O)[C@@H]1Cc1cccc(-c2ccccc2)c1F [Compound 88, (6S,7S)-N-ethyl-6-((2-fluoro-[1,1′-biphenyl]-3-yl)methyl)-N-methyl-7-(methylsulfonamido)-5-azaspiro[2.4]heptane-5-carboxamide] | 0.0794 to 1 | 90 to 100 |  | 
CS(=O)(=O)NC1C(Cc2cccc(-c3ccccc3)c2)N(C(=O)C(F)F)CC12CC2 (racemic) [Compound 5, N-(6-([1,1′-biphenyl]-3-ylmethyl)-5-(2,2-difluoroacetyl)-5-azaspiro[2.4]heptan-7-yl)methanesulfonamide] | 100 to 1000 | 90 to 100 |  | 
CC(C)(C)C(=O)N1CC2(CC2)C(NS(C)(=O)=O)C1Cc1cccc(-c2cccc(F)c2)c1F (racemic) [Compound 23] | 10 to 100 | 90 to 100 |  | 
CN(C)C(=O)N1CC2(CC2)[C@H](NS(C)(=O)=O)[C@@H]1Cc1cccc(-c2ccccc2)c1F [Compound 110, (6S,7S)-6-((2-fluoro-[1,1′-biphenyl]-3-yl)methyl)-N,N-dimethyl-7-(methylsulfonamido)-5-azaspiro[2.4]heptane-5-carboxamide] | 0.0794 to 1 |  | 90 to 100 | 
C[C@H](CF)NC(=O)N1CC2(CC2)[C@H](NS(=O)(=O)C(F)F)[C@@H]1Cc1cccc(-c2ccccc2)c1F [Compound 212, (6S,7S)-7-((difluoromethyl)sulfonamido)-6-((2-fluoro-[1,1′-biphenyl]-3-yl)methyl)-N-((R)-I-fluoropropan-2-yl)-5-azaspiro[2.4]heptane-5-carboxamide] | 1 to 10 | 90 to 100 |  | 
CS(=O)(=O)N[C@@H]1[C@H](Cc2cccc(-c3cccc(Cl)c3)c2F)N(C(=O)[C@H]2CCO2)CC12CC2 [Compound 161, N-((6S,7S)-6-((3′-chloro-2-fluoro-[1,1′-biphenyl]-3-yl)methyl)-5-((R)-oxetane-2-carbonyl)-5-azaspiro[2.4]heptan-7-yl)methanesulfonamide] | 1 to 10 | 90 to 100 |  | 
O=C([C@H]1CCO1)N1CC2(CC2)[C@H](NS(=O)(=O)C2CC2)[C@@H]1Cc1cc(F)cc(-c2cc(F)cc(F)c2)c1F [Compound 405, N-((6S,7S)-5-((R)-oxetane-2-carbonyl)-6-((2,3′,5,5′-tetrafluoro-[1,1′-biphenyl]-3-yl)methyl)-5-azaspiro[2.4]heptan-7-yl)cyclopropanesulfonamide] | 1 to 10 | 90 to 100 |  | 
CCNC(=O)N1CC2(CC2)[C@H](NS(=O)(=O)N(C)C)[C@@H]1Cc1cccc(-c2ccccc2)c1F [Compound 121] | 0.0794 to 1 | 90 to 100 |  | 
O=C(N1CC(F)C1)N1CC2(CC2)C(NS(=O)(=O)CF)C1Cc1cccc(-c2ccccc2)c1F (racemic) [Compound 105, 1-fluoro-N-(6-((2-fluoro-[1,1′-biphenyl]-3-yl)methyl)-5-(3-fluoroazetidine-1-carbonyl)-5-azaspiro[2.4]heptan-7-yl)methanesulfonamide] | 1 to 10 | 90 to 100 |  | 
O=C([C@H]1CCO1)N1CC2(CC2)[C@H](NS(=O)(=O)N2CCCC2)[C@@H]1Cc1cccc(-c2ccccc2)c1 [Compound 96, N-((6S,7S)-6-([1,1′-biphenyl]-3-ylmethyl)-5-((R)-oxetane-2-carbonyl)-5-azaspiro[2.4]heptan-7-yl)pyrrolidine-1-sulfonamide] | 10 to 100 | 80 to 90 |  | 
O=C([C@@H](O)C1CC1)N1CC2(CC2)[C@H](NS(=O)(=O)C(F)F)[C@@H]1Cc1cccc(-c2cc(F)cc(F)c2)c1F [Compound 377, N-((6S,7S)-5-((S)-2-cyclopropyl-2-hydroxyacetyl)-6-((2,3′,5′-trifluoro-[1,1′-biphenyl]-3-yl)methyl)-5-azaspiro[2.4]heptan-7-yl)-1,1-difluoromethanesulfonamide] | 0.0794 to 1 | 90 to 100 |  | 
O=C(NCCF)N1CC2(CC2)[C@H](NS(=O)(=O)CF)[C@@H]1Cc1cccc(-c2ccccc2)c1F [Compound 367, (6S,7S)-6-((2-fluoro-[1,1′-biphenyl]-3-yl)methyl)-N-(2-fluoroethyl)-7-((fluoromethyl)sulfonamido)-5-azaspiro[2.4]heptane-5-carboxamide] | 0.0794 to 1 | 90 to 100 |  | 
COC[C@@H](C)N(C)C(=O)N1CC2(CC2)[C@H](NS(C)(=O)=O)[C@@H]1Cc1cccc(-c2ccccc2)c1F [Compound 317, (6S,7S)-6-((2-fluoro-[1,1′-biphenyl]-3-yl)methyl)-N-((R)-1-methoxypropan-2-yl)-N-methyl-7-(methylsulfonamido)-5-azaspiro[2.4]heptane-5-carboxamide] | 1 to 10 | 90 to 100 |  | 
O=C([C@H]1CCO1)N1CC2(CC2)[C@H](NS(=O)(=O)C2CC2)[C@@H]1Cc1cccc(-c2cc(F)cc(F)c2)c1F [Compound 223, N-((6S,7S)-5-((R)-oxetane-2-carbonyl)-6-((2,3′,5′-trifluoro-[1,1′-biphenyl]-3-yl)methyl)-5-azaspiro[2.4]heptan-7-yl)cyclopropanesulfonamide] | 0.0794 to 1 | 90 to 100 |  | 
N#CCS(=O)(=O)N[C@@H]1[C@H](Cc2cccc(-c3ccccc3)c2)N(C(=O)[C@H]2CCO2)CC12CC2 [Compound 73] | 10 to 100 | 90 to 100 |  | 
CCS(=O)(=O)N[C@@H]1[C@H](Cc2cccc(-c3ccccc3)c2F)N(C(=O)[C@H](O)CF)CC12CC2 [Compound 178] | 1 to 10 | 90 to 100 |  | 
CC(F)(F)C(=O)N1CC2(CC2)C(NS(C)(=O)=O)C1Cc1cccc(-c2ccccc2)c1 (racemic) [Compound 9, N-(6-([1,1′-biphenyl]-3-ylmethyl)-5-(2,2-difluoropropanoyl)-5-azaspiro[2.4]heptan-7-yl)methanesulfonamide] | 100 to 1000 | 40 to 50 |  | 
CS(=O)(=O)NC1C(Cc2cccc(-c3cc(F)cc(F)c3)c2F)N(C(=O)N2CCC2)CC12CC2 (racemic) [Compound 30, N-(5-(azetidine-1-carbonyl)-6-((2,3′,5′-trifluoro-[1,1′-biphenyl]-3-yl)methyl)-5-azaspiro[2.4]heptan-7-yl)methanesulfonamide] | 0.0794 to 1 | 90 to 100 |  | 
O=C([C@H](O)CF)N1CC2(CC2)[C@H](NS(=O)(=O)CF)[C@@H]1Cc1cc(F)cc(-c2cc(F)cc(F)c2)c1F [Compound 373, 1-fluoro-N-((6S,7S)-5-((S)-3-fluoro-2-hydroxypropanoyl)-6-((2,3′,5,5′-tetrafluoro-[1,1′-biphenyl]-3-yl)methyl)-5-azaspiro[2.4]heptan-7-yl)methanesulfonamide] | 1 to 10 | 90 to 100 |  | 
COC[C@H](F)C(=O)N1CC2(CC2)[C@H](NS(=O)(=O)CF)[C@@H]1Cc1cccc(-c2ccccc2)c1F [Compound 224, 1-fluoro-N-((6S,7S)-5-((S)-2-fluoro-3-methoxypropanoyl)-6-((2-fluoro-[1,1′-biphenyl]-3-yl)methyl)-5-azaspiro[2.4]heptan-7-yl)methanesulfonamide] | 1 to 10 | 90 to 100 |  | 
CS(=O)(=O)N[C@@H]1[C@H](Cc2cccc(-c3ccccc3)c2)N(C(=O)[C@H](O)C(F)(F)F)CC12CC2 [Compound 43, N-((6S,7S)-6-([1,1′-biphenyl]-3-ylmethyl)-5-((S)-3,3,3-trifluoro-2-hydroxypropanoyl)-5-azaspiro[2.4]heptan-7-yl)methanesulfonamide] | 1 to 10 |  |  | A (Emax ranging between 90 and 100)
